Legend:
Format in all cases: in vivo
[1] = system: Echinochloa crus-galli (ECHCG); experiment: Post-emergence herbicidal action against Echinochloa crus-galli; details: 1280 g/ha; rated visually after about 3 weeks vs untreated controls; 100% = plants have died, 0% = like control plants
Experimental: (§1) Seeds of mono- and dicotyledonous weed plants were placed in plastic pots in sandy loam soil (doubly sown with in each case one species of mono- or dicotyledonous weed plants per pot), covered with soil and cultivated in a greenhouse under controlled growth conditions. 2 to 3 weeks after sowing, the test plants were treated at the one-leaf stage. The compounds of the invention, formulated in the form of wettable powders (WP) or as emulsion concentrates (EC), were applied onto the green parts of the plants as aqueous suspension or emulsion with addition of 0.5% additive at a water application rate of 600 liters per hectare (converted). After the test plants had been kept in the greenhouse under optimum growth conditions for about 3 weeks, the activity of the preparations was rated visually in comparison to untreated controls. For example, 100% activity=the plants have died, 0% activity=like control plants. Tables B1 to B8 below show the effects of selected compounds of the general formula (I) according to Table 1 on various harmful plants and an application rate corresponding to 1280 g/ha, which were obtained by the experimental procedure mentioned above.

Poa annua (POAAN) [2] = experiment: Post-emergence herbicidal action against Poa annua; details: 1280 g/ha; rated visually after about 3 weeks vs untreated controls; 100% = plants have died, 0% = like control plants
Experimental: as §1

[3] = system: Abutilon theophrasti (ABUTH); experiment: Post-emergence herbicidal action against Abutilon theophrasti; details: 1280 g/ha; rated visually after about 3 weeks vs untreated controls; 100% = plants have died, 0% = like control plants
Experimental: as §1

[4] = system: Amaranthus retroflexus (AMARE); experiment: Post-emergence herbicidal action against Amaranthus retroflexus; details: 1280 g/ha; rated visually after about 3 weeks vs untreated controls; 100% = plants have died, 0% = like control plants
Experimental: as §1

Stellaria media (STEME) [5] = experiment: Post-emergence herbicidal action against Stellaria media; details: 1280 g/ha; rated visually after about 3 weeks vs untreated controls; 100% = plants have died, 0% = like control plants
Experimental: as §1

[6] = system: Matricaria inodora (MATIN); experiment: Post-emergence herbicidal action against Matricaria inodora; details: 1280 g/ha; rated visually after about 3 weeks vs untreated controls; 100% = plants have died, 0% = like control plants; column head prints STEME
Experimental: as §1

[7] = system: Echinochloa crus-galli (ECHCG); experiment: Pre-emergence herbicidal action against Echinochloa crus-galli; details: 1280 g/ha; scored visually after about 3 weeks vs untreated controls; 100% = plants have died, 0% = like control plants
Text: (§2) Seeds of mono- and dicotyledonous weed plants were placed in plastic pots in sandy loam soil (doubly sown with in each case one species of mono- or dicotyledonous weed plants per pot) and covered with soil. The compounds of the invention, formulated in the form of wettable powders (WP) or as emulsion concentrates (EC), were then applied onto the surface of the covering soil as aqueous suspension or emulsion with addition of 0.5% additive at a water application rate of 600 liters per hectare (converted). After the treatment, the pots were placed in a greenhouse and kept under good growth conditions for the test plants. After about 3 weeks, the effect of the preparations was scored visually in comparison with untreated controls as percentages. For example, 100% activity=the plants have died, 0% activity=like control plants. Tables C1 to C8 below show the effects of selected compounds of the general formula (I) according to Table 1 on various harmful plants and an application rate corresponding to 1280 g/ha, which were obtained by the experimental procedure mentioned above.

Lolium rigidum (LOLRI) = experiment: Pre-emergence herbicidal action against Lolium rigidum; details: 1280 g/ha; scored visually after about 3 weeks vs untreated controls; 100% = plants have died, 0% = like control plants
Text: as §2

Poa annua (POAAN) [8] = experiment: Pre-emergence herbicidal action against Poa annua; details: 1280 g/ha; scored visually after about 3 weeks vs untreated controls; 100% = plants have died, 0% = like control plants
Text: as §2

Setaria viridis (SETVI) = experiment: Pre-emergence herbicidal action against Setaria viridis; details: 1280 g/ha; scored visually after about 3 weeks vs untreated controls; 100% = plants have died, 0% = like control plants
Text: as §2

[9] = system: Abutilon theophrasti (ABUTH); experiment: Pre-emergence herbicidal action against Abutilon theophrasti; details: 1280 g/ha; scored visually after about 3 weeks vs untreated controls; 100% = plants have died, 0% = like control plants
Text: as §2

[10] = system: Amaranthus retroflexus (AMARE); experiment: Pre-emergence herbicidal action against Amaranthus retroflexus; details: 1280 g/ha; scored visually after about 3 weeks vs untreated controls; 100% = plants have died, 0% = like control plants
Text: as §2

[11] = system: Matricaria inodora (MATIN); experiment: Pre-emergence herbicidal action against Matricaria inodora; details: 1280 g/ha; scored visually after about 3 weeks vs untreated controls; 100% = plants have died, 0% = like control plants
Text: as §2

Stellaria media (STEME) [12] = experiment: Pre-emergence herbicidal action against Stellaria media; details: 1280 g/ha; scored visually after about 3 weeks vs untreated controls; 100% = plants have died, 0% = like control plants
Text: as §2

Agrostis tenuis (AGSTE) = experiment: Early post-emergence herbicidal action against Agrostis tenuis; details: 1900 g/ha; scored visually 9 to 12 days after treatment vs untreated controls; 100% = plants have died, 0% = like control plants
Experimental: (§3) Seeds of monocotyledonous or dicotyledonous weed plants were placed in 96-well microtiter plates in quartz sand and grown in a climatized chamber under controlled growth conditions. 5 to 7 days after sowing, the test plants were treated at the cotyledon stage. The compounds according to the invention, formulated in the form of emulsion concentrates (EC), were applied with a water application rate of the equivalent of 2200 liters per hectare. After the test plants had been left to stand in the climatized chamber for 9 to 12 days under optimum growth conditions, the effect of the preparations was scored visually in comparison to untreated controls. For example, 100% activity=the plants have died, 0% activity=like control plants. Tables A1 to A2 below show the effects of selected compounds of the general formula (I) according to Table 1 on various harmful plants and an application rate corresponding to 1,900 g/ha, which were obtained by the experimental procedure mentioned above.

Poa annua (POAAN) [13] = experiment: Early post-emergence herbicidal action against Poa annua; details: 1900 g/ha; scored visually 9 to 12 days after treatment vs untreated controls; 100% = plants have died, 0% = like control plants
Experimental: as §3

| Structure (SMILES) | Post-emergence action against Echinochloa crus-galli (ECHCG) [1] | Post-emergence action against Poa annua (POAAN) (Poa annua (POAAN) [2]) | Post-emergence action against Abutilon theophrasti (ABUTH) [3] | Post-emergence action against Amaranthus retroflexus (AMARE) [4] | Post-emergence action against Stellaria media (STEME) (Stellaria media (STEME) [5]) | Post-emergence action against Matricaria inodora (MATIN) [6] | Pre-emergence action against Echinochloa crus-galli (ECHCG) [7] | Pre-emergence action against Lolium rigidum (LOLRI) (Lolium rigidum (LOLRI)) | Pre-emergence action against Poa annua (POAAN) (Poa annua (POAAN) [8]) | Pre-emergence action against Setaria viridis (SETVI) (Setaria viridis (SETVI)) | Pre-emergence action against Abutilon theophrasti (ABUTH) [9] | Pre-emergence action against Amaranthus retroflexus (AMARE) [10] | Pre-emergence action against Matricaria inodora (MATIN) [11] | Pre-emergence action against Stellaria media (STEME) (Stellaria media (STEME) [12]) | Early post-emergence action against Agrostis tenuis (AGSTE) (Agrostis tenuis (AGSTE)) | Early post-emergence action against Poa annua (POAAN) (Poa annua (POAAN) [13]) |
| --- | --- | --- | --- | --- | --- | --- | --- | --- | --- | --- | --- | --- | --- | --- | --- | --- |
| Cc1cc(C)c(Cc2ccc(F)cc2)c(Oc2ncc(F)cn2)n1 [Example I-479] | 100% | 100% | 100% | 100% | 100% | 100% | 100% | 100% | 100% | 100% | 100% | 100% | 100% | 100% | – | – |
| COc1cc(Cc2c(C)cc(C)nc2Oc2ncc(F)cn2)ccc1F [Example I-487] | 100% | 100% | 100% | 100% | 100% | 100% | 100% | 100% | 100% | 100% | 100% | 100% | 100% | 100% | – | – |
| Cc1ccnc(Oc2ncccn2)c1Sc1ccc(F)cc1F [Example I-210] | 90% | 100% | 90% | – | – | – | 100% | 100% | 100% | 100% | 100% | 100% | 100% | 100% | – | – |
| Cc1cc(C)c(Cc2ccccc2)c(Oc2ncc(F)cn2)n1 [Example I-478, 2-[(3-Benzyl-4,6-dimethyl-2-pyridyl)oxy]-5-fluoropyrimidine] | 90% | 100% | 100% | 100% | 100% | 90% | 100% | 100% | 100% | 100% | 100% | 100% | 100% | 100% | – | – |
| Cc1ccnc(Oc2ncccn2)c1Sc1ccccc1 [Example I-216, 2-[(4-Methyl-3-phenylsulfanyl-2-pyridyl)oxy]pyrimidine] | 100% | 100% | 100% | 100% | 100% | – | 100% | 90% | 100% | 100% | 100% | 100% | 100% | 100% | – | – |
| Cc1ccc(Oc2ccccc2)c(Oc2ncc(Cl)cn2)n1 [Example I-500] | 90% | 100% | 100% | – | 100% | – | 100% | 100% | 100% | 100% | 100% | 100% | 90% | 100% | – | – |
| Cc1cc(C)c(Oc2ncc(F)cn2)c(Oc2ncc(F)cn2)n1 [Example I-595] | – | – | – | – | – | – | – | – | – | – | – | – | – | – | 100% | 100% |
| Cc1cc(C)c(Cc2ccc(F)cc2F)c(Oc2ncc(F)cn2)n1 [Example I-481] | 100% | 100% | 100% | 100% | 100% | 90% | 100% | 100% | 100% | 100% | 100% | 100% | 100% | 100% | – | – |
| Cc1ccc(Cc2ccc(F)cc2F)c(Oc2ncccn2)n1 [Example I-444] | – | 100% | – | – | 90% | 90% | – | 90% | 100% | 100% | – | 100% | 100% | 100% | – | – |
| Cc1cc(C)c(Oc2ncc(Cl)cc2F)c(Oc2ncc(F)cn2)n1 [Example I-591] | – | – | – | – | – | – | – | – | – | – | – | – | – | – | 100% | 100% |
| COc1cccc(Cc2c(C)cc(C)nc2Oc2ncc(F)cn2)c1 [Example I-484] | 100% | 100% | 100% | 100% | 100% | 100% | 100% | 100% | 100% | 100% | 100% | 100% | 100% | 100% | – | – |

Reference: patent US11834434B2, “Substituted 2-heteroaryloxypyridines and salts thereof and their use as herbicidal agents” (Bayer Aktiengesellschaft, priority 2018, dated 2023)
